In patent US10154992B2, “Compounds and methods for treating HIV infection” (THE REGENTS OF THE UNIVERSITY OF CALIFORNIA, priority 2016, dated 2018):
pEC50, pIC50: −log10 of the molar value. ≈ marks a conversion by molar mass, not a printed value. Read-outs that look alike come from different tables or passages of the source.

Legend:
[1] = target: T1, Rev-RRE IIB interaction (Human immunodeficiency virus type 1 group M subtype B, UniProt P04608+P04618); type: cell-based, HIV
T1 construct: with a fusion to HIV Rev (residues 3-70) was generated; expressed in transfected cells
T1 sequence (P04608 whole entry, looked up, the tested form may be a part): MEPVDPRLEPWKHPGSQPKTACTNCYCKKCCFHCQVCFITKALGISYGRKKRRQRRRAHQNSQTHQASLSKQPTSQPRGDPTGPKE
T1 sequence (P04618 whole entry, looked up, the tested form may be a part): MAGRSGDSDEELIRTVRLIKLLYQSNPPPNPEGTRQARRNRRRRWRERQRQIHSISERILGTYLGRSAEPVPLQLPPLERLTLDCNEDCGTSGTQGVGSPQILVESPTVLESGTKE
Protocol: A library of approximately 4500 carboxamide-containing compounds was assembled and tested in the reporter cell line at 30 μM. Reporter cells were plated in a white 96-well plate and compounds were added to the cells using a Biomek FX robotic liquid handler (Beckman Coulter). The cells were incubated with the compound for 48 hours then assayed for luciferase activity (Promega Bright Glo). The cytotoxicity of each compound was determined in parallel via MTT-based cell viability assays.
(§1) Cells were counted and plated into white 384-well or 96-well cell-culture treated assay plates and compounds were added. After 48 hours, the cells were prepared for luminescence assays that were performed on a plate reader (Tecan Evolution or MD Analyst). The cytotoxicity of each compound was determined in parallel via MTT-based cell viability assays.
as §1, with “Tat hybrid reporter assay. […] Previously characterized thienopyridines and diaminoacridine were used as controls. Cells” for “Cells”, “384-well” for “384-well or 96-well”, “lumincescence” for “luminescence”
The RRE IIB-Rev screening cell line was plated in 384-well assay plates and compounds were added to the cells to a final concentration of 30 μM. Cells were prepared and assayed for luciferase activity. […] In parallel, MTT cell viability assays were performed to assess the toxicity of compounds and minimize the level of false positives.

[2] = tested on: HIV-1 provirus in U1 cells; experiment: U1 activation (latency) assay, p24 ELISA; type: cell-based; conditions: for pIC50: Human immunodeficiency virus 1
Procedure, shortened: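 PHA-activated U1 cells (latent integrated HIV-1 provirus, 250,000/well) treated with compound at final 1 to 10,000 nM for 3 days; virus production measured by p24 ELISA of cell-free supernatant. Cell viability assessed by MTT in parallel cultures.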

[3] = tested on: HIV RRE (Rev-dependent) reporter; experiment: Rev reporter assay in 293T cells, p24 ELISA; type: cell-based; conditions: Human immunodeficiency virus 1, HEK-293T, Table 2
Protocol: Rev reporter assay. In the Rev reporter assay, 293T cells were transfected with an HIV RRE (Rev-dependent) reporter plus a pSV2 Rev expression plasmid (Hope, T. J., et al. (1990) Proc. Natl. Acad. Sci. USA 87, 7787-7791). Compounds were incubated with the cells for 48 hours and reporter activity was assessed by p24 ELISA. Leptomycin B, an inhibitor of the Crm1 pathway that inhibits Rev-dependent export, was included as a control. The cytotoxicity of each compound was determined in parallel via MTT-based cell viability assays.

[4] = tested on: clinical isolates of HIV-1; experiment: HIV-1 replication assay in PBMCs, p24 ELISA; type: cell-based
Protocol: HIV-1 replication assay in PBMCs. Virus isolates were obtained from the NIH AIDS Reagent Program. Human PBMCs, seronegative for HIV and hepatitis B virus (Astarte Biologics, LLC) were stimulated in R-3 medium (RPMI 1640 medium with 25 mM HEPES and L-glutamine, 20% heat-inactivated fetal bovine serum, 1% penicillin/streptomycin, 201U/mL IL-2) with 5 µg/mL phytohemagglutinin (PHA-P) for 48 to 72 h. Stimulated PBMCs were resuspended and diluted in fresh R-3 medium and added to 96-well plates at 5×10^4 cells/well. The 50% tissue culture infective dose (TCID50) of each virus stock was measured by end-point dilution assay described by Reed and Muench (Reed, L. J., and Muench, H. (1938) American Journal of Hygiene 27, 493-497). Spinoculation (1,200×g, 2 hrs) was applied to improve the efficiency of infection.
Cells were infected with 40 TCID50s of virus stock under spinoculation in the presence of different concentrations of test compounds (biological quintuplicate wells/concentration) and incubated at 37° C., 5% CO2 for 7 days. On day 4, half of the supernatant was removed and replaced with fresh R-3 medium containing the appropriate concentration of test compounds. On day 7, cell-free supernantant samples were collected for analysis of p24 antigen expression measured by ELISA described above. Antiviral activity was assessed by the inhibition of p24 expression (Reed, L. J., and Muench, H. (1938) American Journal of Hygiene 27, 493-497.

[5] = Aqueous solubility pH 7.4; type: physicochemical; conditions: aqueous solution, pH 7.4, pH 7.4, aqueous buffer
Excerpt: (§2) We next evaluated analogs 2b, 2f, 4a, and 4e in a panel of standard in vitro ADME assays to assess drug-like properties and the potential for efficacy in animals.

[6] = Caco-2 permeability; type: in vitro ADME; conditions: human
Excerpt: as §2

[7] = Human liver microsome stability; type: in vitro ADME; conditions: human liver microsomes; read-out: HLM T1/2
Excerpt: The more lipophilic analogs 4a and 4e also appear more prone to oxidative metabolism in the presence of human liver microsomes. This is perhaps unsurprising given the presence of methoxyphenyl (4a) and benzylic methylene (4e) functions, both potential sites of oxidative metabolism.

[8] = tested on: A7854G mutant (RRE) virus; experiment: Replication of RRE A7854G resistant virus; type: cell-based, HIV

Compound: NC(=O)c1cc2c(-c3ccc4c(c3)CCO4)cncc2s1 [Compound 4e, 4-(2,3-dihydro-1-benzofuran-5-yl)thieno[2,3-c]pyridine-2-carboxamide]
- activity in the Tat-hybrid reporter assay [1]: low-nM potency
- potency in the U1 assay [2]: low-nM potency
- pIC50 ([2]; Table 2, read-out: U1 cell IC50): > 7.00
- pIC50 ([2]; read-out: IC50 in the U1 assay): 8.05
- pEC50 [3]: 6.30 to 7.00
- pIC50 ([4]; Human immunodeficiency virus 1, BAL, CCR5, PBMC, viral isolate Ba-L, coreceptor CCR5): > 7.00
- pIC50 ([4]; Human immunodeficiency virus 1, CCR5, PBMC, viral isolate 92HT593, coreceptor CXCR4, CCR5): > 7.00
- pIC50 ([4]; Human immunodeficiency virus 1, CCR5, PBMC, viral isolate 92TH014, coreceptor CCR5): > 7.00
- pIC50 ([4]; Human immunodeficiency virus 1, CCR5, PBMC, viral isolate 93BR021, coreceptor CCR5): > 7.00
- pIC50 ([4]; Human immunodeficiency virus 1, CCR5, PBMC, viral isolate 93BR028, coreceptor CCR5): > 7.00
- pIC50 ([4]; Human immunodeficiency virus 1, PBMC, PBMC, viral isolate 92HT599, coreceptor CXCR4): > 7.00
- pIC50 ([4]; Human immunodeficiency virus 1, PBMC, PBMC, viral isolate 92UG005, coreceptor CXCR4): > 7.00
- pIC50 ([4]; Human immunodeficiency virus 1, PBMC, PBMC, viral isolate LAI, coreceptor CXCR4): 6.30 to 7.00
- solubility [5]: 0.28 µM (≈ 0.083 µg/mL)
- Papp [6]: 66.6 ×10⁻⁶ cm/s
- half-life [7]: 18 min
- pIC50 ([8]; Human immunodeficiency virus 1, read-out: IC50 A7854G mutant): 6.66
- pIC50 ([8]; Human immunodeficiency virus 1, read-out: IC50 resistant-virus): 8.29
